Laboratory results as given in patent publication US20030236218A1, “Aryl phosphate derivatives of d4T with selective activity against adenovirus and HIV” (priority 2002, published 2003).
Values after ≈ are worked out from the molar mass of the structure shown. Read-outs that look alike come from different tables or passages of the source.

Legend:
Stability in plasma = assay type: in vitro ADME
Method: Plasma samples (200 μL) were mixed 1:4 with acetone (800 μL) and vortexed for at least 30 seconds. Following centrifugation, the supernatant was transferred into a clean tube and was dried under nitrogen. A 50 μL solution of 50% methanol in 200 mM HCl was used to reconstitute the extraction residue, and 40 μL was injected into the HPLC.
The whole blood samples were placed in a 37° C. water bath, while plasma samples were stored at −20° C. At a predetermined time, an aliquot (100 μl) of spiked whole blood or plasma was extracted by adding 400 μl of acetone to induce precipitation of proteins, as described above.

[1] = Stability in simulated gastric fluid; assay type: in vitro ADME; conditions: 100 μM, 37° C., 8 hours, listed as d4T-5′-[p-bromophenyl methoxyalaninyl phosphate]
Method: (§1) The spiked fluids were then placed in a 37° C. water bath. At a predetermined time, 100 μI aliquots of the spiked gastric or intestinal fluid were extracted by adding 400 μl of acetone as discussed above.

[2] = Stability in simulated intestinal fluid; assay type: in vitro ADME; conditions: 100 μM, 37° C.
Method: as §1

[3] = Octanol/water partition coefficient, shake flask method; assay type: physicochemical; conditions: 4 hours at room temperature, read-out: Oct/Water (log P)
Method: HPLC purification was achieved using a reverse-phase Lichrospher column (250×4 mm, Hewlett-Packard, RP-18, Cat. #79925) and an isocratic flow (1 ml/minute) consisting of water (70%) and acetonitrile (30%). Melting points were determined using a Melt John's apparatus and are uncorrected. Column chromatography was performed using silica gel obtained from Baker Company. The octanol/water partition coefficient was determined by the shake flask method. The phosphoramidate analogs were added to 2 ml of water and 2 ml of octanol in a glass vial. The mixture was shaken for 4 hours at room temperature. The two phases were carefully separated and filtered through a Millipore filter and analyzed by HPLC. The partition coefficient was calculated using the ratio of the area under the curve for octanol and water, respectively.

Solubility = assay type: physicochemical; conditions: read-out: Solubility
[4] = Hydrolysis rate in alkali conditions; assay type: physicochemical
Method: Statistical analysis. Each drug was tested at 6-7 different concentrations ranging from 0.0001 μM to 100 μM. Each assay was set up in triplicate wells and repeated 1-3 times. An IC50 value was calculated from each set of triplicate wells using nonlinear regression modeling of the exponential form of the linearized equation (Statview, SAS Institute, Inc., Cary, N.C.). Hydrolysis rates were determined by fitting single exponential decay equations to the disappearance of the compound in alkali conditions (all R^2 values greater than 0.85). The IC50 values obtained were correlated to the log transformed hydrolysis rate constants by fitting a linear model (JMP Software, SAS Institute Inc., Cary, N.C.). P-values less than 0.05 were deemed significant.

[5] = system: cytomegalovirus (CMV) strain AD169; experiment: CMV plaque formation assay in SF cells; assay type: cell-based; conditions: Human betaherpesvirus 5
Text: (§2) Virus stocks. The HIV-1 strain used in this study was HTLV-IIIB (Uckun et al., 1998 Antimicro. Agents and Chemother., 42:383-388). The non-HIV viruses included in the present study were the gancyclovir-sensitive cytomegalovirus (CMV) strain AD169 (ATCC VR-538); acyclovir-sensitive herpes simplex virus (HSV) Type I strain HF (ATCC VR-260); acyclovir-sensitive HSV Type II strain G (ATCC VR-734); adenovirus strain Type 5, strain adenoid 75 (ATCC VR-5); enterovirus strain, ECHO 30, strain Bastianni (ATCC VR-322); and respiratory syncytial virus (RSV), strain Long (ATCC VR-26).
(§3) Plaque formation assays. Plaque assays were used to examine the activity of the compounds against non-HIV viruses. The skin fibroblast cell line SF (ATCC CRL-2097) was used as a target for AD169, Adenovirus Type 5. […] cell line (ATCC CCL-81) was used as a target for HSV HF and G. The HEP-2 cell line (ATCC CCL-23) was used as a target for the RSV strain Long. These cell lines were cultured at 1×10^5 cells/well in 24-well (all but ECHO 30-infected SF) or 6-well (ECHO 30-infected SF) tissue culture plates with 0.9% methylcellulose or 0.4% SeaPlaque agarose semisolid support. […] Percent inhibition of plaque formation was calculated by comparing the plaque numbers from the test substance-treated infected cells with the plaque numbers from untreated infected cells (i.e., virus controls). The IC50 values were determined using the Statview statistics program (SAS Institute, Inc., Cary, N.C.).
(§4) Statistical analysis. […] An IC50 value was calculated from each set of triplicate wells using nonlinear regression modeling of the exponential form of the linearized equation (Statview, SAS Institute, Inc., Cary, N.C.). […]
(§5) The skin fibroblast cell line SF (ATCC CRL-2097) was used as a target for AD169, Adenovirus Type 5, and ECHO 30; the VERO cell line (ATCC CCL-81) was used as a target for HF and G; and the HEP-2 cell line (ATCC CCL-23) was used as target for the RSV strain Long. Results are expressed as the average IC50 values in μM. […]

HSV Type II strain G = experiment: HSV-2 plaque formation assay in VERO cells; assay type: cell-based, herpes simplex virus Type II; conditions: Human alphaherpesvirus 2, HSV-2, Strain G
Text: as §2, §3, §4, §5

[6] = mice, cited from earlier work
[7] = dogs; twice daily hard gelatin capsules 25 mg/kg -100 mg/kg; cumulative dose levels as high as 8.4 g/kg; cited from earlier work

Row | Compound | time to complete decomposition in plasma (Stability in plasma; 250 μM) [min] | decomposed following incubation with plasma (Stability in plasma; 250 μM, after 5 minutes) | stability in plasma (in words) (Stability in plasma; spiked plasma, 250 μM compound 113, 100 μM Ala-d4T-MP (followed for 1 day)) | stability in gastric fluid (in words) [1] | stability in intestinal fluid (in words) [2] | decomposed in intestinal fluid ([2]; within 2 hours) | logP at 4 h [3] | Solubility (Solubility) [mg/mL] | Hydrolysis Rate [4] [min⁻¹] | IC50 [5] [µM] | IC50 (HSV Type II strain G) [µM] | toxicity on daily administration ([6]; intraperitoneally or orally for up to 8 consecutive weeks, cumulative dose levels as high as 6.4 g/kg) | acute or subacute toxicity ([6]; single intraperitoneal or oral bolus dose levels as high as 500 mg/kg) | tolerability of four-week treatment course [7] | logP at 4 h ([3]; octanol/water)
1 | COC(=O)C(C)NP(=O)(OC[C@@H]1C=C[C@H](n2cc(C)c(=O)[nH]c2=O)O1)Oc1ccc(Br)cc1 (stereo partly drawn) [Compound 113, 5′-[4-Bromophenyl methoxylaninylphosphate]-2′, 3′-didehydro-3′-deoxy thymidine] | ≤ 30 | over 95% | very unstable | relatively stable | not stable | approximately 94% | 1.21 | 3 (≈ 5.51 mM) | 0.0210 | > 100 | > 100 | not associated with any detectable toxicity | very well tolerated without any detectable acute or subacute toxicity | very well tolerated | –
2 | Cc1cn([C@H]2C=C[C@@H](CO)O2)c(=O)[nH]c1=O [d4T, 2′, 3′-Didehydro-3′-deoxy thymidine, reference compound] | – | – | – | – | – | – | – | 83 (≈ 370 mM) | – | > 100 | > 100 | – | – | – | -0.59
